Target: Protein phosphatase methylesterase 1 (Homo sapiens) (UniProt Q9Y570)
Assay: PME-1 inhibitors, ABPP after gel filtration, late-stage follow-up, gel-based ABPP (AID 2368)
Conditions: PME-1 labeling, active compounds read high, concentration not given here

Protein phosphatase methylesterase 1 (Homo sapiens), sequence (Q9Y570 whole entry, looked up): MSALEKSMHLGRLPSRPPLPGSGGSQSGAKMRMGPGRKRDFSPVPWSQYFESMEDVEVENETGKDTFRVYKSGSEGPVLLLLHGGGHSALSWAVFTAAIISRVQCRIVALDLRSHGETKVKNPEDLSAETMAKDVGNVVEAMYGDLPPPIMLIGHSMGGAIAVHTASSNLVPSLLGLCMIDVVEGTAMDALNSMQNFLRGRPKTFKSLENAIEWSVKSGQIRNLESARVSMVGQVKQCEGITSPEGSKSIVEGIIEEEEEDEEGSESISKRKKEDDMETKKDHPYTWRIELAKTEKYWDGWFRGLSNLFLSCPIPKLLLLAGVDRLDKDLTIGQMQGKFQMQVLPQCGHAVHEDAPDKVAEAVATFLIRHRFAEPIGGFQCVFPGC

| inhibition | Structure (SMILES) |
| --- | --- |
| > 50% | N#C/C(=C\c1cccn1S(=O)(=O)c1cccc(C#N)c1)S(=O)(=O)c1ccc(F)cc1 |
| > 50% | N#C/C(=C\c1cccn1S(=O)(=O)c1cccc([N+](=O)[O-])c1)S(=O)(=O)c1ccc(F)cc1 |

— PubChem BioAssay AID2368 (The Scripps Research Institute Molecular Screening Center, 2010)
